The record followed here is patent US20110117168A1, “METHODS AND COMPOSITIONS FOR SOFT TISSUE REPAIR” (AFFINERGY, INC., priority 2009, published 2011).

Ends that are not written are not given here. spacer = not defined here

One assay relates to human MSCs. The assay is described as follows: Capture of MSCs from a mixed cell population with peptide on CELLECTION magnetic beads. As to conditions: starting mixture 38% IM9, 56% U937, 4% MSC. The format is cell-based. An excerpt:
In this experiment, biotinylated cell binding peptide, SEQ ID NO: 16, was attached to CELLECTION magnetic beads. The CELLECTION beads have streptavidin coupled to a magnetic particle through a DNA linker. Three different cell types, human MSCs, IM-9, and U937 cells were differentially labeled with […] dye and mixed in a ratio such that the MSCs represented ˜4% of the starting cell mixture (the percentage of each cell type in the starting mixture was 38% IM9, 56% U937, and 4% MSC). The cell binding peptide, SEQ ID NO: 16, was biotinylated as described herein at Example 2, as was a general cell binding peptide for use as a control peptide in the experiment. Magnetic particles with no peptide attached, as well as magnetic beads having attached either the cell binding peptide, SEQ ID NO: 16, or the control peptide were tested for their ability to capture human MSCs. The starting cell mixture was incubated with magnetic beads having either attached peptide or no peptide, the beads were washed, and the captured cells were released from the beads by DNase treatment. The cells were measured by flow cytometry histograms shown in 18A-18C. The magnetic beads without peptide captured little or no cells (FIG. 18B). The magnetic beads with attached cell binding peptide SEQ ID NO: 16 captured a cell population that was 96% MSCs (FIG. 18C).

The test system of assay [1] is HUVECs. In words: HUVEC capture and retention on peptide-modified collagen coated 96-well plates ([…]-GLO). The format is cell-based, human. The procedure:
After washing, 10,000 HUVECs were added per well in serum free medium for 30 min at 37° C. The plates were washed 3 times with PBS containing 2% FBS, and captured cells were detected with […]-GLO (INVITROGEN) using a luminometer and a standard curve. […] For FIG. 21B, the collagen was extracted in gel loading buffer, separated by PAGE, and total protein was stained with SIMPLYBLUE (INVITROGEN). […] Plates with captured HUVECs were prepared as described in FIG. 20A. […]

Assay [2] deals with HUVECs. In words: Endothelial cell phenotype and anti-thrombogenic protein expression on peptide-modified collagen. The format is cell-based, human. Particulars: HUVECs cultured 24 hours; t-PA and 6-keto Prostaglandin F1a ELISA, flow cytometry. On the procedure: Once immobilized on a vascular graft, endothelial cells must retain their characteristic properties of promoting endothelialization. Therefore, the phenotype, viability, and anti-thrombogenic protein expression profiles were evaluated for endothelial cells in the presence of collagen modified with the endothelial cell binding peptide SEQ ID NO: 4 (generated according to Example 7 using BS^3 reagent). […] Specifically, HUVECs were plated on SEQ ID NO: 4 peptide-modified collagen, collagen with 10 μM free SEQ ID NO: 4 peptide or collagen alone for 24 hours. Flow cytometry was performed using a BD […], and ELISAs were performed according to manufacturers instructions. (FIGS. 22A & 22B). Tissue-type Plasminogen Activator (t-PA) and 6-keto Prostaglandin F1a protein expression levels secreted in this assay are aligned with other reports on cultured HUVECS (Kimura and Yokoi-Hayashi, Biochim Biophys Acta, 1996, 1310:1-4; Merhi-Soussi et al., J Leukoc Biol, 2000, 68:881-9).

The test system of assay [3] is HUVECs. In words: HUVEC colonization and proliferation on peptide-modified collagen. The format is cell-based, human. Particulars: 7,000 HUVECs, 48 hours at 37° C. On the procedure: In 96-well plates 7,000 HUVECs were plated on peptide-modified soluble collagen or unmodified collagen for 48 hours at 37° C. Plates were removed and washed and the remaining attached cells were detected using […]-GLO on a luminometer.

The test system of another assay is ECFCs. The assay is described as follows: Capture of ECFCs in flow on collagen-coated coverslips (parallel plate flow chamber). Type of assay: cell-based, human. Particulars: 2×10^6 ECFC circulated for 2 h at 37° C. On the procedure: The ability of the collagen modified with endothelial cell binding peptide SEQ ID NO: 4 to capture ECFCs in flow was analyzed as follows. Glass coverslips were coated with unmodified collagen or cell binding peptide modified-collagen and mounted in a polycarbonate parallel plate flow chamber. PBS/10% FBS was circulated through a closed 150 ml system to block the coverslips. Approximately 2×10^6 ECFC were injected into the system and were circulated for 2 h at 37° C. Coverslips were washed in PBS to remove loosely adhering cells, the remaining cells on the coverslips were lysed in CELLTITERGLO (INVITROGEN, CA), and the cells enumerated by luminescence against a standard curve.

In assay [4] the test system is HUVECs. In words: Retention of HUVECs under shear stress on collagen-coated cover-slips. The format is cell-based, human. On the procedure:
The ability of the collagen modified with endothelial cell binding peptide SEQ ID NO: 4 to retain HUVECs under shear stress was analyzed as follows. Glass cover-slips were coated with peptide conjugated collagen or unmodified collagen and seeded with HUVECs. Coverslips were secured in a polycarbonate slide with six 1 cm diameter wells enabling simultaneous testing of materials. A closed loop peristaltic pump was used to expose the samples to flow conditions for 30 minutes at laminar flow rates up to 12 dynes/cm^2 in PBS containing 2% FBS. The number of cells retained on the cover slip was determined using […]-GLO (INVITROGEN) and a luminometer.

Another assay relates to human dermal fibroblasts. In words: Fibroblast binding to peptide-modified collagen coated plates ([…]-GLO). The format is cell-based. The procedure:
The experiment was performed according to the following procedure. Cell-binding peptide (SEQ ID NO: 4) was covalently attached to soluble collagen as described herein at Example 7. 96-well plates were coated with various amounts of unmodified or the peptide-modified collagen (177 μmol peptide/g collagen) over night at 4° C. Unbound collagen was removed and the plates were blocked for 1 h. After washing, 5,000 human dermal fibroblasts were added per well in serum-free medium for 30 min at 37° C. The plates were washed, and bound cells were detected with […]-GLO (PROMEGA) using a luminometer. At 0.0025 μg collagen, fibroblast binding was increased 11-fold for the peptide-modified collagen compared to unmodified collagen (see FIG. 28).

Turning to “SSFRFGPLGTWNYPSTDNAE (also: biotin (position not given here)) [SEQ ID NO: 16, tested biotinylated]”, the “MSCs in captured cell population” value in the assay with human MSCs stood at 96%.

On to “peptide-modified collagen: soluble bovine type I collagen with SEQ ID NO: 4 covalently attached via BS^3 crosslinking reagent (SSFWDVCQGDGTCYGGGSR-{spacer-Lys}; cysteine pairing not given here; reading uncertain; also: conjugated to soluble bovine type I collagen via BS3 (site not given here))”, for which the “HUVECs retained versus unmodified collagen after agitation” value in the assay with HUVECs [1] (1 hour with agitation in PBS containing 2% FBS) is 7 fold. Besides, in the assay with HUVECs [1] (10,000 HUVECs per well, serum free medium, 30 min at 37° C.), the “increase in cell retention over unmodified collagen” value came to 3 fold. The “endothelial cell phenotype and anti-thrombogenic protein secretion” value in the assay on HUVECs [2] was “maintained their endothelial cell phenotype and their ability to secrete anti-thrombogenic proteins”. Moreover, the “HUVEC colonization and proliferation versus unmodified collagen” value in the assay with HUVECs [3] is “colonize and proliferate equally”. In the assay on ECFCs, the “cells captured in flow versus unmodified collagen” value was “about 20 fold”. Further, the “cells captured versus unmodified collagen” value in the assay on HUVECs [4] (HUVECs, 30 minutes, laminar flow up to 12 dynes/cm^2) is on record as “about 3 fold”. In addition, in the assay on HUVECs [4] (laminar flow up to 12 dynes/cm^2, 30 minutes), the “effect of shear stress on cell capture” value is reported as “did not significantly affect cell capture”. Moreover, the “fibroblast binding increase compared to unmodified collagen” value with human dermal fibroblasts (0.0025 μg collagen, 5,000 human dermal fibroblasts, 30 min at 37° C.) is reported as 11 fold. Moreover, the “fibroblast binding at higher concentrations of collagen” value in the assay with human dermal fibroblasts (data not shown) is given as “Increased cell binding”.
